According to US10709690B2, “Combination therapy with nitrated lipids and inhibitors of the renin-angiotensin-aldosterone system” (THE UNIVERSITY OF UTAH RESEARCH FOUNDATION, priority 2011, dated 2020):

How the values were obtained:
Format in all cases: in vivo
[1] = tested on: renal heme oxygenase-1 (HO-1) protein; assay: Renal heme oxygenase-1 protein expression in db/db mice by immunoblotting; conditions: 12 days; for changes of renal HO-1 protein expression relative to the vehicle group: OA-NO2 10 mg/kg/d via osmotic mini-pump, losartan via diet
Procedure: Lean mice (non-diabetic) with vehicle treatment were used as controls. Renal HO-1 protein was analyzed by using immunoblotting. […] Male 3-4-month-old db/db mice were from Jackson Laboratories (Bar Harbor, Me.). All animals were housed in an air-conditioned room with a 12-hour light/dark cycle. All procedures and protocols were in accordance with guidelines set by the Laboratory Animal Care Committee at the University of Utah. 9-Nitrooleic acid and 10-nitrooleic acid are two regioisomers of nitrooleic acid (OA-NO2), which are formed by nitration of oleic acid in approximately equal proportions ([…] et al. Chemistry Letters pp. 1109-1112, 1982). The two compounds were purchased from Cayman Chemicals (Ann Arbor, Mich.) (9-nitrooleic acid: Cat #10008042; 10-nitrooleic acid: Cat #10008043) and used as an 1:1 mixture of the isomers. db/db mice were implanted with a 3-week osmotic mini-pump which delivered a vehicle or OA-NO2 at 10 mg/kg/d. Animals were fed with losartan, which is an AT1 blocker. 24-h urine samples were collected before and after the treatment. Renal HO-1 expression was examined using immunoblotting.

[2] = tested on: db/db mice; assay: Renal TBARS in db/db mice, 12-day treatment; conditions: 12 days, OA-NO2 10 mg/kg/d via osmotic mini-pump, losartan via diet
Source text: Lean mice (non-diabetic) with vehicle treatment were used as controls. […] Lean: n=5; vehicle: n=10; losartan: n=8; OA-NO2: n=9; losartan+OA-NO2: n=10. Data are mean±SE. Male 3-4-month-old db/db mice were from Jackson Laboratories (Bar Harbor, Me.). All animals were housed in an air-conditioned room with a 12-hour light/dark cycle. All procedures and protocols were in accordance with guidelines set by the Laboratory Animal Care Committee at the University of Utah. 9-Nitrooleic acid and 10-nitrooleic acid are two regioisomers of nitrooleic acid (OA-NO2), which are formed by nitration of oleic acid in approximately equal proportions ([…] et al. Chemistry Letters pp. 1109-1112, 1982). The two compounds were purchased from Cayman Chemicals (Ann Arbor, Mich.) (9-nitrooleic acid: Cat #10008042; 10-nitrooleic acid: Cat #10008043) and used as an 1:1 mixture of the isomers. db/db mice were implanted with a 3-week osmotic mini-pump which delivered a vehicle or OA-NO2 at 10 mg/kg/d. Animals were fed with losartan, which is an AT1 blocker. 24-h urine samples were collected before and after the treatment.

[3] = tested on: db/db mice; assay: Urinary TBARS in db/db mice, 12-day treatment; conditions: OA-NO2 10 mg/kg/d via osmotic mini-pump, losartan via diet; for effect on urinary TBARS (in words): 12 days; for changes of urinary TBARS relative to the vehicle group: after 12 days
Procedure: FIG. 2 is a bar graph comparing the amounts of urinary thiobarbituric acid reactive substances (TBARS) in db/db mice before and after 12-d infusion with vehicle, losartan, nitrooleic acid (OA-NO2), or losartan+OA-NO2. Lean mice (non-diabetic) with vehicle treatment were used as controls. Losartan was administered via diet, while vehicle and OA-NO2 were each infused via osmotic mini-pump. Lean: n=5; vehicle: n=10; losartan: n=8; OA-NO2: n=9; losartan+OA-NO2: n=10. Data are mean±SE. Male 3-4-month-old db/db mice were from Jackson Laboratories (Bar Harbor, Me.). All animals were housed in an air-conditioned room with a 12-hour light/dark cycle. All procedures and protocols were in accordance with guidelines set by the Laboratory Animal Care Committee at the University of Utah. 9-Nitrooleic acid and 10-nitrooleic acid are two regioisomers of nitrooleic acid (OA-NO2), which are formed by nitration of oleic acid in approximately equal proportions ([…] et al. Chemistry Letters pp. 1109-1112, 1982). The two compounds were purchased from Cayman Chemicals (Ann Arbor, Mich.) (9-nitrooleic acid: Cat #10008042; 10-nitrooleic acid: Cat #10008043) and used as an 1:1 mixture of the isomers. db/db mice were implanted with a 3-week osmotic mini-pump which delivered a vehicle or OA-NO2 at 10 mg/kg/d. Animals were fed with losartan, which is an AT1 blocker. 24-h urine samples were collected before and after the treatment.

[4] = tested on: renal COX-2 protein; assay: Renal COX-2 protein expression in db/db mice by immunoblotting; conditions: 12 days; for changes of renal COX-2 protein expression relative to the vehicle group: OA-NO2 10 mg/kg/d via osmotic mini-pump, losartan via diet
Procedure: Lean mice (non-diabetic) with vehicle treatment were used as controls. Renal COX-2 protein was analyzed by using immunoblotting.
Male 3-4-month-old db/db mice were from Jackson Laboratories (Bar Harbor, Me.). All animals were housed in an air-conditioned room with a 12-hour light/dark cycle. All procedures and protocols were in accordance with guidelines set by the Laboratory Animal Care Committee at the University of Utah.
9-Nitrooleic acid and 10-nitrooleic acid are two regioisomers of nitrooleic acid (OA-NO2), which are formed by nitration of oleic acid in approximately equal proportions (Hayama et al. Chemistry Letters pp. 1109-1112, 1982). The two compounds were purchased from Cayman Chemicals (Ann Arbor, Mich.) (9-nitrooleic acid: Cat #10008042; 10-nitrooleic acid: Cat #10008043) and used as an 1:1 mixture of the isomers.
db/db mice were implanted with a 3-week osmotic mini-pump which delivered a vehicle or OA-NO2 at 10 mg/kg/d. Animals were fed with losartan, which is an AT1 blocker. 24-h urine samples were collected before and after the treatment.
Renal COX-2 expression in db/db mice treated as above was examined by immunoblotting.

[5] = tested on: db/db mice; assay: Urinary albumin in db/db mice, 12-day treatment; conditions: 12-day study, OA-NO2 10 mg/kg/d via osmotic mini-pump, losartan via diet; for changes of urinary albumin relative to the vehicle group: + increase, − decrease in albuminuria
Procedure: FIG. 1 is a bar graph comparing the amounts of urinary albumin in db/db mice before and after a 12 day (12-d) administration of vehicle, losartan, nitrooleic acid (OA-NO2), or losartan+OA-NO2. Lean mice (non-diabetic) with vehicle treatment were used as controls. losartan was administered via diet, while OA-NO2 and vehicle were each infused via osmotic mini-pump. Lean: n=5; vehicle: n=10; losartan: n=8; OA-NO2: n=9; losartan+OA-NO2: n=10. Data are mean±SE. Male 3-4-month-old db/db mice were from Jackson Laboratories (Bar Harbor, Me.). All animals were housed in an air-conditioned room with a 12-hour light/dark cycle. All procedures and protocols were in accordance with guidelines set by the Laboratory Animal Care Committee at the University of Utah. 9-Nitrooleic acid and 10-nitrooleic acid are two regioisomers of nitrooleic acid (OA-NO2), which are formed by nitration of oleic acid in approximately equal proportions ([…] et al. Chemistry Letters pp. 1109-1112, 1982). The two compounds were purchased from Cayman Chemicals (Ann Arbor, Mich.) (9-nitrooleic acid: Cat #10008042; 10-nitrooleic acid: Cat #10008043) and used as an 1:1 mixture of the isomers. db/db mice were implanted with a 3-week osmotic mini-pump which delivered a vehicle or OA-NO2 at 10 mg/kg/d. Animals were fed with losartan, which is an AT1 blocker. 24-h urine samples were collected before and after the treatment. […] The plus symbol (+) means an increase and the minus symbol (-) indicates a decrease in albuminuria.

Molecule	effect on renal HO-1 expression (in words) [1]	changes of renal HO-1 protein expression relative to the vehicle group [1]	effect on renal TBARS content (in words) [2]	effect on urinary TBARS (in words) [3]	changes of urinary TBARS relative to the vehicle group [3]	effect on renal COX-2 expression (in words) [4]	changes of renal COX-2 protein expression relative to the vehicle group [4] [%]	effect on urinary albumin excretion (in words) [5]	changes of urinary albumin relative to the vehicle group [5]
CCCCc1nc(Cl)c(CO)n1Cc1ccc(-c2ccccc2-c2nn[nH]n2)cc1 [losartan]	elevated	+97.6%	trend of reduction but none of these changes reached statistical significance	without an effect	+33.4%	modest effect	−5.3	Neither losartan or OA-NO2 alone exhibited a statistically significant effect	+7%
nitrooleic acid [OA-NO2]	elevated	+48.8%	trend of reduction but none of these changes reached statistical significance	without an effect	+16.5%	modest effect	−14.8	Neither losartan or OA-NO2 alone exhibited a statistically significant effect	−13%
